Assay results reported in patent publication EP4711368A1 (priority 2023, dated 2024).
Like-named read-outs stand apart in the source and are kept apart here.

What was measured:
[1] = test system: SD rats; experiment: animal or person; format: in vivo; conditions: iv; for minimal effective dose: Rattus norvegicus; for Onset time / Righting feflex duration / Sedation Duration / Minimal effective anesthetic dose / Minimal effective analgesic dose: rat, in vivo
[2] = test system: SD rats; conditions: rat, in vivo; for MLD: iv; for Onset time: test concentration or dose not given here; for Righting feflex duration: test concentration or dose not given here; for Sedation Duration: test concentration or dose not given here
[3] = read-out: Minimal effective analgesic dose
[4] = read-out: Minimal effective anesthetic dose

SMILES | minimal effective dose [1, 3] | minimal effective dose [1, 4] | Onset time [1] | Righting feflex duration [1] | Sedation Duration [1] | TI ([2]; SD) | MLD ([2]; SD) | Minimal effective anesthetic dose [1] | TI [2] | MLD [2] | Minimal effective analgesic dose [1]
CC(C)COC(=O)CN1N=C(c2ccccn2)c2cc(Br)ccc2N(C)C1=O [Compound 240] | 30 mg/kg | 10 mg/kg | 0.30 to 0.48 min | 0.62 to 15.83 min | 15.27 to 36.70 min | 3 | 30 mg/kg | – | – | – | –
CC(C)n1nnc(CCN2N=C(c3ccccn3)c3cc(Br)ccc3N(C)C2=O)n1 [Compound 267] | – | 20 mg/kg | 0.72 min | 0.28 min | 12.33 min | 2 | 40 mg/kg | – | – | – | –
CC(C)OC(=O)CCN1N=C(c2ccccn2)c2cc(Br)ccc2N(C)C1=O [Compound 260] | 40 mg/kg | 40 mg/kg | 0.12 min | 7.52 min | 55.52 min | 1.4 | 55 mg/kg | – | – | – | –
Cc1cnc2n1-c1ccc(Br)cc1C(c1ccccn1)=NC2CCOC(=O)CCCl (stereo not drawn) [Compound 150] | – | – | 0.2 to 0.4 min | 0.8 to 13.5 min | 16.9 to 33.9 min | – | – | 2.5 mg/kg | 5.5 | 13.7 mg/kg | –
Cc1cnc2n1-c1ccc(Br)cc1C(c1ccccn1)=NC2CCOC(=O)C1COC1 (stereo not drawn) [Compound 153] | – | – | 0.3 to 0.4 min | 2.9 to 5.8 min | 20.0 to 21.9 min | – | – | 7.5 mg/kg | 2.7 | 20 mg/kg | –
CC(C)N(C)C(=O)OCN1N=C(c2ccccn2)c2cc(Br)ccc2N(C)C1=O [Compound 293] | 15 mg/kg | 15 mg/kg | 0.95 min | 4.20 min | 82.85 min | 1.3 | 20 mg/kg | – | – | – | –
CC(=O)OCCC1N=C(c2ccccn2)c2cc(Br)ccc2N(C)C1=O (stereo not drawn) [Compound 115] | – | – | 0.2 to 0.4 min | 4.9 to 14.1 min | 12.4 to 56.0 min | – | – | 2.5 mg/kg | 16 | 40 mg/kg | –
CC(C)OC(=O)OC1N=C(c2ccccn2)c2cc(Br)ccc2N(C)C1=O (stereo not drawn) [Compound 166] | – | – | 0.4 min | 20.7 min | 64.0 min | – | – | 20.0 mg/kg | 2.0 | 38.9 mg/kg | 20 mg/kg
Cc1cnc2n1-c1ccc(Br)cc1C(c1ccccn1)=NC2COC(=O)c1ccccc1 (stereo not drawn) [Compound 191] | – | – | 0.45 to 0.53 min | 0.7 to 12.8 min | 53.5 to 155.3 min | – | – | 5.0 mg/kg | 6.8 | 34.0 mg/kg | 20 mg/kg
COC(=O)CCC1N=C(c2ccccn2)c2cc([N+](=O)[O-])ccc2N(C)C1=O (stereo not drawn) [Compound 27] | – | – | 0.2 to 0.5 min | 1.3 to 3.9 min | 4.4 to 10.7 min | – | – | 10.0 mg/kg | >1.8 | >18 mg/kg | –
CCC(C)(C)OC(=O)CN1N=C(c2ccccn2)c2cc(Br)ccc2N(C)C1=O [Compound 255] | 20 mg/kg | 15 mg/kg | 0.53 to 0.97 min | 12.27 to 13.62 min | 43.43 to 66.14 min | 2 | 30 mg/kg | – | – | – | –
CC[C@H](C)OC(=O)CN1N=C(c2ccccn2)c2cc(Br)ccc2N(C)C1=O [Compound 242] | – | 7.5 mg/kg | 0.28 to 0.55 min | 5.05 to 18.42 min | 19.98 to 46.92 min | 4 | 30 mg/kg | – | – | – | –
CCOc1nonc1CCN1N=C(c2ccccn2)c2cc(Br)ccc2N(C)C1=O [Compound 274] | – | 27.4 mg/kg | 0.18 min | 4.57 min | 25.87 min | >1 | >27.4 mg/kg | – | – | – | –
CCOC(=O)CCC1N=C(c2ccccn2)c2cc([N+](=O)[O-])ccc2N(C)C1=O (stereo not drawn) [Compound 28] | – | – | 0.2 to 0.5 min | 0.5 to 1.6 min | 4.1 to 7.3 min | – | – | 5.0 mg/kg | >2.3 | >11.3 mg/kg | –
CN1C(=O)C(CCC(=O)OC2COC2)N=C(c2ccccn2)c2cc(Br)ccc21 (stereo not drawn) [Compound 16] | – | – | 0.2 to 0.5 min | 0.6 to 1.7 min | 3.2 to 5.3 min | – | – | 5.0 mg/kg | >4.5 | >22.5 mg/kg | –
CN1C(=O)N(CCc2cccs2)N=C(c2ccccn2)c2cc(Br)ccc21 [Compound 284] | – | 40 mg/kg | 0.2 min | 20 min | 70.72 min | >1 | >40 mg/kg | – | – | – | –

SMILES | minimal effective dose [1, 3] | minimal effective dose [1, 4] | Onset time [1] | Righting feflex duration [1] | Sedation Duration [1] | TI ([2]; SD) | MLD ([2]; SD) | Minimal effective anesthetic dose [1] | TI [2] | MLD [2] | Minimal effective analgesic dose [1]
CCn1nnnc1CCN1N=C(c2ccccn2)c2cc(Br)ccc2N(C)C1=O [Compound 264] | – | 5 mg/kg | 0.43 min | 1.77 min | 8.93 min | 2 | 10 mg/kg | – | – | – | –
CC[C@@H](C)OC(=O)CN1N=C(c2ccccn2)c2cc(Br)ccc2N(C)C1=O [Compound 243] | – | 5 mg/kg | 0.22 to 0.67 min | 0.65 to 19.85 min | 21.98 to 55.45 min | 6 | 30 mg/kg | – | – | – | –
COC(=O)CC1N=C(c2ccccn2)c2cc(Br)ccc2N(C)C1=O (stereo not drawn) [Compound 113] | – | – | 0.2 to 0.3 min | 0.7 to 29.5 min | 20.6 to 77.7 min | – | – | 15.0 mg/kg | 2.7 | 40 mg/kg | –
CN1C(=O)C(CCO)N=C(c2ccccn2)c2cc(Br)ccc21 (stereo not drawn) [Compound 117] | – | – | 0.4 to 0.5 min | 2.7 to 3.8 min | 14.6 to 32.0 min | – | – | 25.0 mg/kg | 1.6 | 40 mg/kg | –
CCC(CC)OC(=O)CN1N=C(c2ccccn2)c2cc(Br)ccc2N(C)C1=O [Compound 247] | 20 mg/kg | 20 mg/kg | 0.28 min | 30.15 min | 88.25 min | 1.5 | 30 mg/kg | – | – | – | –
CN1C(=O)N(COC(=O)CCl)N=C(c2ccccn2)c2cc(Br)ccc21 [Compound 288] | – | 15 mg/kg | 0.80 min | 2.45 min | 33.18 min | 1.3 | 20 mg/kg | – | – | – | –
CON(C)C(=O)OCN1N=C(c2ccccn2)c2cc(Br)ccc2N(C)C1=O [Compound 294] | – | 15 mg/kg | 0.52 to 0.55 min | 3.35 to 6.47 min | 28.68 to 40.58 min | >1.3 | >20 mg/kg | – | – | – | –
COc1nonc1CCN1N=C(c2ccccn2)c2cc(Br)ccc2N(C)C1=O [Compound 273] | – | 10 mg/kg | 0.25 to 0.27 min | 2.38 to 9.68 min | 43.97 to 44.82 min | >2 | >20 mg/kg | – | – | – | –
CC(F)C(=O)OCCN1N=C(c2ccccn2)c2cc(Br)ccc2N(C)C1=O (stereo not drawn) [Compound 303] | – | 20 mg/kg | 0.43 min | 14.30 min | 74.88 min | >1 | >20 mg/kg | – | – | – | –
C=CC(C)OC(=O)CN1N=C(c2ccccn2)c2cc(Br)ccc2N(C)C1=O (stereo not drawn) [Compound 248] | 20 mg/kg | 10 mg/kg | 0.15 to 0.52 min | 2.97 to 38.32 min | 138.4 to 240 min | 4 | 40 mg/kg | – | – | – | –
CC(C)OC(=O)CCC1N=C(c2ccccn2)c2cc3nc(C(F)(F)F)sc3cc2N(C)C1=O (stereo not drawn) [Compound 181] | – | – | 0.8 min | 7.8 min | 53.0 min | – | – | 40.0 mg/kg | >1.0 | >40 mg/kg | 40 mg/kg
CC(C)OC(=O)CN1C2=NCCN2N=C(c2ccccn2)c2cc(Br)ccc21 [Compound 325] | 40 mg/kg | 40 mg/kg | 0.65 min | 3.65 min | 59.22 min | >1 | >40 mg/kg | – | – | – | –
CC(OC(=O)CN1N=C(c2ccccn2)c2cc(Br)ccc2N(C)C1=O)C1CC1 (stereo not drawn) [Compound 250] | – | 20 mg/kg | 0.53 min | 13.62 min | 21.55 min | >1 | – | – | – | – | –
Cc1cnc2n1-c1ccc(Br)cc1C(c1ccccn1)=NN2COC(=O)CCCl [Compound 319] | – | 7.5 mg/kg | 0.38 to 0.48 min | 7.58 to 8.00 min | 21.82 to 52.53 min | >1.3 | >10 mg/kg | – | – | – | –
CC(C)n1nnnc1CCN1N=C(c2ccccn2)c2cc(Br)ccc2N(C)C1=O [Compound 266] | – | 5 mg/kg | 0.40 to 0.52 min | 0.58 to 4.00 min | 12.07 to 16.32 min | 3 | – | – | – | 15 mg/kg | –
